Assay results taken from patent US5283271A, “3,5-diphenyl or substituted 3,5-diphenyl-1-hydroxy-1,2-dihydroimidazole-2-thiones” (Olin Corporation, priority 1992, dated 1994).
In brackets after ≈: the same amount, converted by molar mass. Counter-ions that a name gives are not always drawn. Like-named read-outs stand apart in the source and are kept apart here.

Assays:
Format in all cases: cell-based
Aspergillins niger = assay: Minimum Inhibitory Concentration (MIC), Aspergillins niger; details: 168 h
Protocol: (§1) Determination of the Minimum Inhibitory Concentrations (MIC's) for the Compounds Prepared in Part A
(§2) Solutions of the experimental compounds in dimethyl sulfoxide and an aqueous solution of sodium pyrithione were serially diluted in nutrient broth (Tryptic Soy Broth for bacteria and Sabouraud Dextrose Broth for fungi) in microtiter plates. Equal volumes of a broth supension of bacteria (10^6 CFU/ml) or fungi (10^5 cells or spores/ml) were added to each dilution, and the plates were incubated at 37° C. (bacteria and yeast) or 28° C. (molds). Bacteria, yeast and molds were incubated two, five and seven days respectively before determining the highest inhibitory dilution.

Aureobasidium pullulans = assay: Minimum Inhibitory Concentration (MIC), Aureobasidium pullulans
Protocol: as §1, §2

S. aureus = assay: Minimum Inhibitory Concentration (MIC), S. aureus; details: Staphylococcus aureus, 48 h, Tryptic Soy Broth, 37° C., two days
Protocol: as §1, §2

Candida albicans = assay: Minimum Inhibitory Concentration (MIC), Candida albicans; details: 120 h
Protocol: as §1, §2

E. Coli = assay: Minimum Inhibitory Concentration (MIC), E. Coli; details: Escherichia coli, 48 h, Tryptic Soy Broth, 37° C., two days
Protocol: as §1, §2

Fusarium = assay: Minimum Inhibitory Concentration (MIC), Fusarium; details: 168 h, Sabouraud Dextrose Broth, 28° C., seven days (molds)
Protocol: as §1, §2

[1] = Aspergillins niger, Sabouraud Dextrose Broth, 28° C., seven days (molds), read-out: MIC
[2] = Sabouraud Dextrose Broth, read-out: MIC
[3] = Sabouraud Dextrose Broth, 37° C., five days (yeast), read-out: MIC

| SMILES | MIC (Aspergillins niger; [1]) | MIC (Aureobasidium pullulans; [2]) | MIC (S. aureus) | MIC (Candida albicans; [3]) | MIC (E. Coli) | MIC (Fusarium) | MIC (Aspergillins niger) | MIC (Aureobasidium pullulans) | MIC (Candida albicans) |
| --- | --- | --- | --- | --- | --- | --- | --- | --- | --- |
| On1c(-c2ccccc2)cn(-c2ccccc2)c1=S [Compound 1, 3,5-diphenyl-1-hydroxy-1,2-dihydroimidazole-2-thione] | 8 µg/mL (≈ 29.8 µM) | 2 µg/mL (≈ 7.45 µM) | 256 µg/mL (≈ 954 µM) | 2 µg/mL (≈ 7.45 µM) | 64 µg/mL (≈ 239 µM) | 16 µg/mL (≈ 59.6 µM) |  |  |  |
| COc1ccc(-n2cc(-c3ccccc3)n(O)c2=S)cc1 [Compound 2, 3-(p-methoxyphenyl)-5-phenyl-1-hydroxy-1,2-dihydroimidazole-2-thione] | 64 µg/mL (≈ 215 µM) | 8 µg/mL (≈ 26.8 µM) | 2050 µg/mL (≈ 6860 µM) | 4 µg/mL (≈ 13.4 µM) | 32 µg/mL (≈ 107 µM) | 1020 µg/mL (≈ 3430 µM) |  |  |  |
| COc1ccc(-c2cn(-c3ccccc3)c(=S)n2O)cc1 [Compound 3, 5-(p-Methoxyphenyl)-3-phenyl-1-hydroxy-1,2-dihydroimidazole-2-thione] | 512 µg/mL (≈ 1720 µM) | 16 µg/mL (≈ 53.6 µM) | 32 µg/mL (≈ 107 µM) | 2 µg/mL (≈ 6.7 µM) | 32 µg/mL (≈ 107 µM) | 512 µg/mL (≈ 1720 µM) |  |  |  |
| [O-][n+]1ccccc1S [Pyrithione, sodium salt, sodium pyrithione, reference compound] |  |  | 4 to 8 µg/mL |  | 8 to 32 µg/mL | 64 to 128 µg/mL | 32 to 128 µg/mL | 2 to 32 µg/mL | 4 to 16 µg/mL |
